In ChEMBL document CHEMBL3885881, “DrugMatrix”:

Species: Rattus norvegicus
Test: DrugMatrix - Regimen: Daily Repeat
Type: toxicity, organism-based, Sprague-Dawley
Set-up: regimen Daily Repeat, gender Male, age 6-8 weeks
Conditions: in vivo, sc, route subcutaneous, […]; for ABSOLUTE BASOPHIL / ABSOLUTE EOSINOPHIL / ABSOLUTE LYMPHOCYTE / ABSOLUTE MONOCYTE / ABSOLUTE SEGMENTED NEUTROPHIL / BASOPHIL / EOSINOPHIL / ERYTHROCYTE COUNT / HEMATOCRIT / HEMOGLOBIN / LEUKOCYTE COUNT / LYMPHOCYTE / MEAN CORPUSCULAR HEMOGLOBIN / MEAN CORPUSCULAR HEMOGLOBIN CONCENTRATION / MEAN CORPUSCULAR VOLUME / MONOCYTE / NEUTROPHIL / NUCLEATED RED BLOOD CELLS / PLATELET COUNT: tissue Blood; for ALANINE AMINOTRANSFERASE / ALBUMIN / ALKALINE PHOSPHATASE / ASPARTATE AMINOTRANSFERASE / BLOOD UREA NITROGEN / CARBON DIOXIDE / CHLORIDE / CHOLESTEROL / CREATINE PHOSPHOKINASE / CREATININE / GLUCOSE / LACTATE DEHYDROGENASE / LIPASE / PHOSPHORUS / POTASSIUM / SODIUM / TOTAL BILIRUBIN / TOTAL PROTEIN / URIC ACID: tissue Plasma
[1] = 0 mg/kg, 72 h, dose level Control, time 3 day
[2] = 0 mg/kg, 120 h, dose level Control, time 5 day
[3] = 50 mg/kg, 72 h, dose level Low, time 3 day

CCCCOC(=O)c1ccc(N)cc1 [BUTAMBEN]
ABSOLUTE BASOPHIL [1]: 0 CELLS/uL
ABSOLUTE EOSINOPHIL [1]: 42.67 CELLS/uL
ABSOLUTE LYMPHOCYTE [1]: 10202 CELLS/uL
ABSOLUTE MONOCYTE [1]: 261.5 CELLS/uL
ABSOLUTE SEGMENTED NEUTROPHIL [1]: 2193.83 CELLS/uL
BASOPHIL [1]: 0%
EOSINOPHIL [1]: 0.33%
ERYTHROCYTE COUNT [1]: 5.63 x10E6/uL
HEMATOCRIT [1]: 35.35%
HEMOGLOBIN [1]: 13.07 G/DL
LEUKOCYTE COUNT [1]: 12.7 x10E3/uL
LYMPHOCYTE [1]: 81.17%
MEAN CORPUSCULAR HEMOGLOBIN [1]: 23.23 pg
MEAN CORPUSCULAR HEMOGLOBIN CONCENTRATION [1]: 36.97 G/DL
MEAN CORPUSCULAR VOLUME [1]: 62.82 fL
MONOCYTE [1]: 2%
NEUTROPHIL [1]: 16.5%
NUCLEATED RED BLOOD CELLS [1]: 0 /100WBC
PLATELET COUNT [1]: 1180.33 x10E3/uL
ALANINE AMINOTRANSFERASE [1]: 48.67 u/L
ALBUMIN [1]: 4.08 G/DL
ALKALINE PHOSPHATASE [1]: 360.67 u/L
ASPARTATE AMINOTRANSFERASE [1]: 85.5 u/L
BLOOD UREA NITROGEN [1]: 17.83 mg/dL
CARBON DIOXIDE [1]: 26.17 mmol/L
CHLORIDE [1]: 101.83 MEQ/L
CHOLESTEROL [1]: 71 mg/dL
CREATINE PHOSPHOKINASE [1]: 515.17 u/L
CREATININE [1]: 0.22 mg/dL
GLUCOSE [1]: 192.5 mg/dL
LACTATE DEHYDROGENASE [1]: 214.67 u/L
LIPASE [1]: 8.5 u/L
PHOSPHORUS [1]: 12.95 mg/dL
POTASSIUM [1]: 6.39 MEQ/L
SODIUM [1]: 142.38 MEQ/L
TOTAL BILIRUBIN [1]: 0.18 mg/dL
TOTAL PROTEIN [1]: 5.95 G/DL
URIC ACID [1]: 1.83 mg/dL
ABSOLUTE BASOPHIL [2]: 0 CELLS/uL
ABSOLUTE EOSINOPHIL [2]: 188.5 CELLS/uL
ABSOLUTE LYMPHOCYTE [2]: 12360.83 CELLS/uL
ABSOLUTE MONOCYTE [2]: 64.33 CELLS/uL
ABSOLUTE SEGMENTED NEUTROPHIL [2]: 1986.33 CELLS/uL
BASOPHIL [2]: 0%
EOSINOPHIL [2]: 1.33%
ERYTHROCYTE COUNT [2]: 5.52 x10E6/uL
HEMATOCRIT [2]: 35.82%
HEMOGLOBIN [2]: 13.25 G/DL
LEUKOCYTE COUNT [2]: 14.6 x10E3/uL
LYMPHOCYTE [2]: 84.5%
MEAN CORPUSCULAR HEMOGLOBIN [2]: 24.05 pg
MEAN CORPUSCULAR HEMOGLOBIN CONCENTRATION [2]: 36.98 G/DL
MEAN CORPUSCULAR VOLUME [2]: 64.97 fL
MONOCYTE [2]: 0.5%
NEUTROPHIL [2]: 13.67%
NUCLEATED RED BLOOD CELLS [2]: 0 /100WBC
PLATELET COUNT [2]: 1297.83 x10E3/uL
ALANINE AMINOTRANSFERASE [2]: 51.17 u/L
ALBUMIN [2]: 4.08 G/DL
ALKALINE PHOSPHATASE [2]: 393.17 u/L
ASPARTATE AMINOTRANSFERASE [2]: 111 u/L
BLOOD UREA NITROGEN [2]: 18.17 mg/dL
CARBON DIOXIDE [2]: 25 mmol/L
CHLORIDE [2]: 105.17 MEQ/L
CHOLESTEROL [2]: 65.5 mg/dL
CREATINE PHOSPHOKINASE [2]: 911.5 u/L
CREATININE [2]: 0.21 mg/dL
GLUCOSE [2]: 183 mg/dL
LACTATE DEHYDROGENASE [2]: 189 u/L
LIPASE [2]: 8.33 u/L
PHOSPHORUS [2]: 12.78 mg/dL
POTASSIUM [2]: 6.05 MEQ/L
SODIUM [2]: 144.57 MEQ/L
TOTAL BILIRUBIN [2]: 0.25 mg/dL
TOTAL PROTEIN [2]: 5.83 G/DL
URIC ACID [2]: 1.58 mg/dL
ABSOLUTE BASOPHIL [3]: 0 CELLS/uL
ABSOLUTE EOSINOPHIL [3]: 143.67 CELLS/uL
ABSOLUTE LYMPHOCYTE [3]: 12216.67 CELLS/uL
ABSOLUTE MONOCYTE [3]: 393.33 CELLS/uL
ABSOLUTE SEGMENTED NEUTROPHIL [3]: 2079.67 CELLS/uL
BASOPHIL [3]: 0%
EOSINOPHIL [3]: 1%
ERYTHROCYTE COUNT [3]: 5.53 x10E6/uL
HEMATOCRIT [3]: 33.47%
HEMOGLOBIN [3]: 12.13 G/DL
LEUKOCYTE COUNT [3]: 14.83 x10E3/uL
LYMPHOCYTE [3]: 82.33%
MEAN CORPUSCULAR HEMOGLOBIN [3]: 21.93 pg
MEAN CORPUSCULAR HEMOGLOBIN CONCENTRATION [3]: 36.23 G/DL
MEAN CORPUSCULAR VOLUME [3]: 60.5 fL
MONOCYTE [3]: 2.67%
NEUTROPHIL [3]: 14%
NUCLEATED RED BLOOD CELLS [3]: 0 /100WBC
PLATELET COUNT [3]: 1210 x10E3/uL
ALANINE AMINOTRANSFERASE [3]: 56.33 u/L
ALBUMIN [3]: 3.9 G/DL
ALKALINE PHOSPHATASE [3]: 352 u/L
ASPARTATE AMINOTRANSFERASE [3]: 93.33 u/L
BLOOD UREA NITROGEN [3]: 15.67 mg/dL
CARBON DIOXIDE [3]: 27 mmol/L
CHLORIDE [3]: 103.67 MEQ/L
CHOLESTEROL [3]: 75.33 mg/dL
CREATINE PHOSPHOKINASE [3]: 408 u/L
CREATININE [3]: 0.24 mg/dL
GLUCOSE [3]: 178.67 mg/dL
LACTATE DEHYDROGENASE [3]: 150.67 u/L
LIPASE [3]: 8.33 u/L
PHOSPHORUS [3]: 12.53 mg/dL
POTASSIUM [3]: 5.89 MEQ/L
SODIUM [3]: 144.57 MEQ/L
TOTAL BILIRUBIN [3]: 0.2 mg/dL
TOTAL PROTEIN [3]: 5.57 G/DL
URIC ACID [3]: 1.43 mg/dL
